Read-outs that look alike come from different tables or passages of the source. Blank lines part the entries; values can stand above or below the compound they belong to.
Legend:
SVR cells = test: SVR cell proliferation assay; assay type: cell-based; details: 10 mg/ml, 72 hours exposure, Coulter Counter
Method: The filtered aqueous extract was lyophilized to a dry powder, which was dissolved in distilled water and analyzed by HPLC, and 5 fractions were collected. HPLC fractions were lyophilized. Each fraction was reconstituted into 10 mg/ml solutions, and the ability to inhibit proliferation of SVR cells was tested.
SVR cells (1×10^4) were plated for 24 hours in a 24-well plate. The media was then changed to DMEM containing purified extract at a concentration of 10 mg/ml. Cells were exposed to drug for 72 hours and were counted with a Coulter Counter (Coulter, Hialeah, Fla.) according to the method of Lamontagne et al (LaMontagne et al., (2000) Am. J. Pathol. 157, 1937-1945). […] In order to determine the component of mate tea responsible, the aqueous extract was fractionated by HPLC, and the ability of the fractions to inhibit SVR cell proliferation was assessed. […] The structures of T-2, T-5, and T-6 were elucidated by proton NMR and mass spectroscopy (FIG. 1). […] The NMR spectra of the compounds are shown below.

[1] = biological target: purified prokaryotic 20S proteasome (Methanosarcina thermophila, UniProt Q9P992); test: Chymotrypsin-like activity of purified 20S proteasome (fluorogenic substrate Suc-Leu-Leu-Val-Tyr-AMC); assay type: biochemical; details: for inhibition at 100 µM: read-out: inhibition of proteasomal chymotrypsin-like activity
Method: This example describes the how to analyze the inhibitory effect of isolated fractions of mate tea in vitro, using purified 20S proteasome. The chymotrypsin-like activity of purified 20S proteasome was measured as previously described (Nam et al., (2001) J. Biol. Chem. 276, 13322-13330). Briefly, purified prokaryotic 20S proteasome (0.5 μg) was incubated with 20 μM fluorogenic peptide substrate, Suc-Leu-Leu-Val-Tyr-AMC for 30 min at 37° C. in 100 μl of assay buffer (50 mM Tris-HCl, pH 7.5), with or without a mate tea fraction at indicated concentrations. After incubation, production of hydrolyzed 7-amido-4-methyl-coumarin (AMC) groups was measured using a multi-well plate VersaFluor™ Fluorometer with an excitation filter of 380 nm and an emission filter of 460 nm (Bio-Rad).
The quinic acid esters resemble the proteasome inhibitor (−)-epigallocatechin gallate [(−)-EGCG] in that they contain hydroxylated aromatic carboxylic acids esterified to a polyhydroxylated aliphatic ring (FIG. 3). Based upon this similarity, and the previous finding that epigallocatechin gallate is an inhibitor of proteasomes (Ren et al., (2000) Oncogene 19, 1419-1427; Nam et al., (2001) J. Biol. Chem. 276, 13322-13330)), the ability of fractions T-2, T-5, and T-6 to inhibit proteasome function was assessed. To determine the ability of quinic acid esters to inhibit proteasome activity, a fluorescent substrate activity assay was performed with purified 20S proteasome. Epigallocatechin gallate (EGCG, Sigma Chemical Company, St Louis, Mo.) was used as a positive control for proteasome inhibition. To ensure complete inhibition of the proteasome, 100 μM EGCG was used. The compound 3,5-dicaffeoylquinic acid (3,5-DCQ) was tested against proteasome activity in three different concentrations: 20, 100, and 200 μg/ml, which correspond to 37, 183, and 366 μM respectively (FIG. 4).

[2] = biological target: T1, 26S proteasome in Jurkat T cell extracts (Homo sapiens, UniProt P28074); test: Proteasome chymotrypsin-like activity in Jurkat T cell extracts; assay type: biochemical; details: 60 min at 37° C.
T1 construct: Whole cell extracts (20 μg) of Jurkat T cells; endogenous in cells; host or cells: Jurkat T cells (whole cell extract)
T1 sequence (P28074 60-263): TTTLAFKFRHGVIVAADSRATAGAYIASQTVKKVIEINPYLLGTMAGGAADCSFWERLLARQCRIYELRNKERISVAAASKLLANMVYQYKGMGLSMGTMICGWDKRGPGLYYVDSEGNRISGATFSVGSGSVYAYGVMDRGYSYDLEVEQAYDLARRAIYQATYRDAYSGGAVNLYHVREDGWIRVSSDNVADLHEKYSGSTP
Method: This example describes the how to analyze the inhibitory effect of isolated fractions of mate tea in vivo, using cell extracts of the Jurkat cancer cell line. Whole cell extracts (20 μg) of Jurkat T cells were incubated for 60 min at 37° C. with 20 μM of fluorogenic peptide substrate Suc-Leu-Leu-Val-Tyr-AMC in […] of the assay buffer, with or without a mate tea fraction at indicated concentrations. The hydrolyzed AMCs were quantified as described above.
The abilities of 3,5-DCQ and neochlorogenic acid to inhibit the 26S proteasome activity in Jurkat cell extracts was tested.

Jurkat T cells = test: Cell cycle analysis of Jurkat T cells by flow cytometry (propidium iodide); assay type: cell-based; details: for arrest of Jurkat cells in G2/M phase: 2 μg/ml for 24 h; for increase of G2/M population: 20 μg/ml for 24 h
Method: To investigate the inhibitory effect of the fractions on cell cycle, Jurkat cells exposed to each fraction were analyzed by flow cytometry. Cell cycle analysis based on DNA content was performed as described previously (See Nam et al., 2001). The cell cycle distribution is shown as the percentage of cells containing G1, S, G2, and M DNA judged by propidium iodide staining.
The proteasome-inhibitory potencies of 3,5-DCQ and neochlorogenic acid were identified as being associated with growth-inhibitory activity in vivo, based on treating Jurkat T cells with each compound at a concentration of 2 or 20 μg/ml for 24 h. After treatment, the cells were harvested and assayed by flow cytometry. […] In contrast, neochlorogenic acid at the same concentrations had no effects.

[3] = test system: inositol-1,4,5-triphosphate 3 kinase (GgIP3K-A); test: Inositol-1,4,5-triphosphate 3 kinase activity assay (Mayr et al.); assay type: biochemical; details: FIG. 6
Method: An assay was performed as described in Mayr et al., (2005) J. Biol. Chem. 280: 13229-13240, incorporated herein by reference. […] Inhibition of the kinase activity may be important in HIV.

[4] = at 100 μM, purified 20S proteasome
[5] = at 20 μg/ml (37 μM 3,5-DCQ; 56 μM neochlorogenic acid)
[6] = at 100 μg/ml (183 μM 3,5-DCQ; 282 μM neochlorogenic acid)

Chain of purified prokaryotic 20S proteasome (Q9P992 10-210): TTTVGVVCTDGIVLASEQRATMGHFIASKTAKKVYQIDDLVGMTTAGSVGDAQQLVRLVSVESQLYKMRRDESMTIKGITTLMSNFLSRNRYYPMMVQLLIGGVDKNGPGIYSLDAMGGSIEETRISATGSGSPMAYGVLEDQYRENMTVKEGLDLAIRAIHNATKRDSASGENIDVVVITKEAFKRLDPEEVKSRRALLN
Chain of purified prokaryotic 20S proteasome (Q59565 whole entry, further chain): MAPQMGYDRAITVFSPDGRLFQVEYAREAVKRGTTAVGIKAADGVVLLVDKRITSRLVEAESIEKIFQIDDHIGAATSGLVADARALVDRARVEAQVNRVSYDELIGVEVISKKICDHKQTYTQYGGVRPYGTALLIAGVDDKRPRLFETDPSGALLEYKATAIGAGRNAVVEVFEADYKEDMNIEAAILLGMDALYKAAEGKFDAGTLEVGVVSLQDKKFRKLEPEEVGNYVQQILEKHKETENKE

inhibition of proteasomal chymotrypsin-like activity [1, 4]: 40%
SMILES: O=C(/C=C/c1ccc(O)c(O)c1)O[C@@H]1[C@H](O)C[C@@](O)(C(=O)O)C[C@H]1OC(=O)/C=C/c1ccc(O)c(O)c1 (stereo in doubt) [T-6, 3,4-Dicaffeoylquinic acid]
inhibition of SVR cell proliferation (SVR cells): most potent inhibitory effects

inhibition at 100 µM [1, 4]: 60%
inhibition at 20 µg/mL [2, 5]: ~50%
inhibition at 100 µg/mL [2, 6]: ~85%
SMILES: O=C(C=Cc1ccc(O)c(O)c1)OC1CC(O)(C(=O)O)CC(OC(=O)C=Cc2ccc(O)c(O)c2)C1O (stereo not shown) [3,5-DCQ, 3,5-Dicaffeoylquinic acid]
inhibition of SVR cell proliferation (SVR cells): most potent inhibitory effects
arrest of Jurkat cells in G2/M phase (Jurkat T cells): very slight arrest
increase of G2/M population (Jurkat T cells): ~10%

SMILES: O=C(C=Cc1ccc(O)c(O)c1)OC1CC(O)(C(=O)O)CC(O)C1O (stereo not shown) [neochlorogenic acid, 5-Caffeoylquinic acid]
inhibition of SVR cell proliferation (SVR cells): most potent inhibitory effects
inhibition at 100 µM [1]: 21%
inhibition of 26S proteasome activity in Jurkat cell extracts [2, 5]: ~30%
inhibition of 26S proteasome activity in Jurkat cell extracts [2, 6]: ~75%
arrest of Jurkat cells in G2/M phase (Jurkat T cells): no effects
increase of G2/M population (Jurkat T cells): no effects

activity against proteasomes (qualitative) ([1]; used as a control, chymotrypsin-like proteasome activity (FIG. 5)): activity against proteasomes
inhibition of IP-3 kinase activity (qualitative) [3]: inhibit
SMILES: CC(C)(C)c1cc(CCC(=O)OCC(COC(=O)CCc2cc(C(C)(C)C)c(O)c(C(C)(C)C)c2)(COC(=O)CCc2cc(C(C)(C)C)c(O)c(C(C)(C)C)c2)COC(=O)CCc2cc(C(C)(C)C)c(O)c(C(C)(C)C)c2)cc(C(C)(C)C)c1O [PTTC, Pentaerythritol tetrakis (3,5-di-tert-butyl-4-hydroxyhydrocinnamate), reference compound]
